Here are results for 1 compound from publication PMC5610941 (Journal of molecular biology, 2017).

The assay deals with HtpG (Escherichia coli, UniProt P0A6Z3). Description: SAXS radius of gyration titration, closed-state accumulation. The assay is classed as binding.
HtpG, sequence (P0A6Z3 whole entry): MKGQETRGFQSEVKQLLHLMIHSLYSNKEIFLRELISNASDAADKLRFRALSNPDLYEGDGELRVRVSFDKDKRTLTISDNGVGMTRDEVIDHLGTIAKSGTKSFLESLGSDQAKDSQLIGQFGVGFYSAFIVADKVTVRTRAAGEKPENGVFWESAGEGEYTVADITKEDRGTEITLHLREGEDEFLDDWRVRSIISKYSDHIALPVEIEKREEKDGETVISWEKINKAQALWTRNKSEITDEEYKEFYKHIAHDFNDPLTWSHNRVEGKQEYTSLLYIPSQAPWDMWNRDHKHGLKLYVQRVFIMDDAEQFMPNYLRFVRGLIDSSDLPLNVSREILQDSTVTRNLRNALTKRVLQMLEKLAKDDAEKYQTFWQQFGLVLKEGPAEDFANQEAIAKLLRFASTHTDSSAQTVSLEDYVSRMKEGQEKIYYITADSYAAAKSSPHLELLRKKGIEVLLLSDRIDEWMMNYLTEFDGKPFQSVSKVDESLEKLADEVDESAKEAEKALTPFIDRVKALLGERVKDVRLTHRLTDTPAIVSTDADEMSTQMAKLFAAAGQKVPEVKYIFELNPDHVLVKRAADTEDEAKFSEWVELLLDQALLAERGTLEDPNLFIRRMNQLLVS

Consider `Nc1ncnc2c1ncn2[C@@H]1O[C@H](COP(=O)(O)OP(=O)(O)NP(=O)(O)O)[C@@H](O)[C@H]1O` [AMPPNP], for which the Kd lay in the range of 12 to 15 µM.

What is called Kd is the equilibrium constant for the complex coming apart.
